# Test results as given in PubChem BioAssay AID1963973 (Molecular Pharmacology Branch, DTP, NCI, 2024).
# Test system: 883617-216-R-J1-PDC tumor spheroids, viability
# Experiment: Anticancer human tumor 883617-216-R-J1-PDC patient-derived bladder carcinoma cell line growth inhibition [PI3K]
# Details: spheroids with HUVEC and MSC; for viability, T/C: stronger effect = lower value
# How it was run: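 We assembled tumor spheroids that included a stromal compartment of HUVEC and MSCs, then exposed them to targeted agents alone and together with PI3K pathway inhibitors. Concentration series descended by half-log from clinically achievable Cmax levels. Viability served as the endpoint.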
# 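Note: spheroids exposed to agents for 7 days before the viability read.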
smiles,measurement,setting,value
CC(=O)c1c(C)c2cnc(Nc3ccc(N4CCNCC4)cn3)nc2n(C2CCCC2)c1=O + CC(Nc1ncnc2nc[nH]c12)c1cc2cccc(Cl)c2c(=O)n1-c1ccccc1,IC50,"curve of first compound, second compound 0.0316 µM",86 nM
same,IC50,"curve of first compound, second compound 0.1 µM",79.9 nM
same,IC50,"curve of first compound, second compound 0.316 µM",76.2 nM
same,IC50,"curve of first compound, second compound 1 µM",46.7 nM
same,IC50,"curve of first compound, second compound 3.16 µM",23 nM
same,IC50,"curve of first compound, second compound 10 µM",< 0.316 nM
same,"viability, T/C","second compound 0.0316 µM, first compound 0.000316 µM",92.9%
same,"viability, T/C","second compound 0.0316 µM, first compound 0.001 µM",94.6%
same,"viability, T/C","second compound 0.0316 µM, first compound 0.00316 µM",87.7%
same,"viability, T/C","second compound 0.0316 µM, first compound 0.01 µM",86.6%
same,"viability, T/C","second compound 0.0316 µM, first compound 0.0316 µM",79.6%
same,"viability, T/C","second compound 0.0316 µM, first compound 0.1 µM",45.2%
same,"viability, T/C","second compound 0.1 µM, first compound 0.000316 µM",96%
same,"viability, T/C","second compound 0.1 µM, first compound 0.001 µM",107%
same,"viability, T/C","second compound 0.1 µM, first compound 0.00316 µM",76.3%
same,"viability, T/C","second compound 0.1 µM, first compound 0.01 µM",79.8%
same,"viability, T/C","second compound 0.1 µM, first compound 0.0316 µM",86.3%
same,"viability, T/C","second compound 0.1 µM, first compound 0.1 µM",40.8%
same,"viability, T/C","second compound 0.316 µM, first compound 0.000316 µM",100%
same,"viability, T/C","second compound 0.316 µM, first compound 0.001 µM",95.3%
same,"viability, T/C","second compound 0.316 µM, first compound 0.00316 µM",87.1%
same,"viability, T/C","second compound 0.316 µM, first compound 0.01 µM",84.3%
same,"viability, T/C","second compound 0.316 µM, first compound 0.0316 µM",58.8%
same,"viability, T/C","second compound 0.316 µM, first compound 0.1 µM",47.3%
same,"viability, T/C","second compound 1 µM, first compound 0.000316 µM",98%
same,"viability, T/C","second compound 1 µM, first compound 0.001 µM",78.3%
same,"viability, T/C","second compound 1 µM, first compound 0.00316 µM",80.3%
same,"viability, T/C","second compound 1 µM, first compound 0.01 µM",71.3%
same,"viability, T/C","second compound 1 µM, first compound 0.0316 µM",58.6%
same,"viability, T/C","second compound 1 µM, first compound 0.1 µM",36.4%
same,"viability, T/C","second compound 3.16 µM, first compound 0.000316 µM",76%
same,"viability, T/C","second compound 3.16 µM, first compound 0.001 µM",61.3%
same,"viability, T/C","second compound 3.16 µM, first compound 0.00316 µM",68.8%
same,"viability, T/C","second compound 3.16 µM, first compound 0.01 µM",58.6%
same,"viability, T/C","second compound 3.16 µM, first compound 0.0316 µM",44.1%
same,"viability, T/C","second compound 3.16 µM, first compound 0.1 µM",38.1%
same,"viability, T/C","second compound 10 µM, first compound 0.000316 µM",52.7%
same,"viability, T/C","second compound 10 µM, first compound 0.001 µM",39.4%
same,"viability, T/C","second compound 10 µM, first compound 0.00316 µM",41.4%
same,"viability, T/C","second compound 10 µM, first compound 0.01 µM",46.4%
same,"viability, T/C","second compound 10 µM, first compound 0.0316 µM",31.9%
same,"viability, T/C","second compound 10 µM, first compound 0.1 µM",23.9%
Cn1ncc(Cl)c1-c1cc(C(=O)NC(CN)Cc2cccc(F)c2)sc1Cl (stereo not drawn),"viability, T/C",compound 0.0316 µM,98.2% [middle of 4 runs]
same,"viability, T/C",compound 0.1 µM,85% [middle of 4 runs]
same,"viability, T/C",compound 0.316 µM,63.8% [middle of 4 runs]
same,"viability, T/C",compound 1 µM,34.5% [middle of 4 runs]
same,"viability, T/C",compound 3.16 µM,13.8% [middle of 4 runs]
same,IC50,curve of compound,571 nM [middle of 4 runs]
